Holding throughout (format): cell-based, human
Test [1] deals with EBC-1 cells. Kind of test: 6-day in vitro cytotoxicity assay (nuclear counts). To be noted: 6-day treatment. The protocol:
(§1) To determine the relative cell-killing potency of anti-MET antibody drug conjugates (ADCs) described herein, cell-killing assays were run on multiple cells lines expressing varying levels of endogenous MET.
(§2) To measure in vitro cytotoxicity of anti-MET ADCs, nuclear counts after a 3 or 6-day treatment with the ADCs was assessed. […] For cell viability curves, serially diluted ADCs, unconjugated antibodies, or free payloads were added to the cells at final concentrations ranging from 100 nM to 0.01 nM (based on toxin concentration) and incubated for 3 or 6 days at 37° C. in 5% CO2. Cells were subsequently treated with 3 ug/ml Hoechst 33342 nuclear stain (Invitrogen, #H3570) while being fixed with 4% formaldehyde. Images were acquired on the ImageXpress micro XL (Molecular Devices, Sunnyvale, Calif.) and nuclear counts were determined via MetaXpress image analysis software (Molecular Devices, Sunnyvale, Calif.). Background nuclear counts from cells treated with […] digitonin were subtracted from all wells and viability was expressed as a percentage of the untreated controls. IC50 values were determined from a four-parameter logistic equation over a 10-point response curve (GraphPad Prism). The untreated condition for each dose-response curve is also included in the analysis and is represented as the lowest dose.

The subject of test [2] is T47D cells. Kind of test: 6-day in vitro cytotoxicity assay (nuclear counts). To be noted: 6-day treatment. On the procedure:
as §1, §2

For test [3], the system named is Hs746T cells. Kind of test: 6-day in vitro cytotoxicity assay (nuclear counts). To be noted: 6-day treatment. On the procedure:
as §1, §2

The subject of test [4] is A549 cells. Kind of test: 6-day in vitro cytotoxicity assay (nuclear counts). Particulars: 6-day treatment. On the procedure: as §1, §2
For test [5], the system named is MET pathway in NCI-H596 cells. Kind of test: Immunoblot of MET and ERK phosphorylation, time course. To be noted: HGF 50 ng/ml. On the procedure:
250,000 NCI-H596 cells were seeded in a 12 well plate and cultured in RPMI Media supplemented with 10% FBS. […] The cells were subsequently incubated in 5% CO2 at 37° C. After 0, 2, 6 or 18 hours, cell lysates were prepared, protein content was normalized and immunoblot analysis was performed. MET phosphorylation and ERK phosphorylation were quantified with the ImageJ image processing program (T. Collins, BioTechniques 43: S25-S30, 2007). Phosphorylation levels were normalized to the Tubulin loading control and are expressed as fold change relative to control treatment.
In general terms: A western blot detects proteins with antibodies after separation by electrophoresis.

Another test concerns MDA-MB-231 cells. Kind of test: 3-day in vitro cytotoxicity assay (nuclear counts). Particulars: 3-day treatment. The protocol:
as §1, §2

A further test deals with J.RT3 cells. Kind of test: 3-day in vitro cytotoxicity assay (nuclear counts). Particulars: 3-day treatment. The protocol: as §1, §2
Test [6] has as its system T47D cells. Kind of test: 3-day in vitro cytotoxicity assay (nuclear counts). To be noted: 3-day treatment. The protocol: as §1, §2
Test [7] relates to Hs746T cells. Kind of test: 3-day in vitro cytotoxicity assay (nuclear counts). To be noted: 3-day treatment. On the procedure: as §1, §2
The subject of a further test is U87MG cells. Kind of test: 3-day in vitro cytotoxicity assay (nuclear counts). To be noted: 3-day treatment. On the procedure:
as §1, §2

Test [8] relates to A549 cells. Kind of test: 3-day in vitro cytotoxicity assay (nuclear counts). To be noted: 3-day treatment. On the procedure: as §1, §2
For the next test, the system named is HEK293 cells. Kind of test: 3-day in vitro cytotoxicity assay (nuclear counts). Particulars: 3-day treatment. The protocol: as §1, §2
Another test has as its system SNU-5 cells. Kind of test: 3-day in vitro cytotoxicity assay (nuclear counts). To be noted: 3-day treatment. The protocol: as §1, §2
For test [9], the system named is EBC-1 cells. Kind of test: 3-day in vitro cytotoxicity assay (nuclear counts). Particulars: 3-day treatment. On the procedure: as §1, §2
The subject of the next test is NCI-H1993 cells. Kind of test: 3-day in vitro cytotoxicity assay (nuclear counts). Particulars: 3-day treatment. The protocol:
as §1, §2

The next test concerns MKN-45 cells. Kind of test: 3-day in vitro cytotoxicity assay (nuclear counts). Particulars: 3-day treatment. The protocol: as §1, §2
The test system of test [10] is MET (c-Met) in HEK293/SRE-Luc cells. Kind of test: SRE-luciferase reporter bioassay, ligand (HGF)-independent MET activation. Particulars: antibody alone at various concentrations; result in words. The source says: (§3) The ability of anti-MET antibodies to block hepatocyte growth factor (HGF)-mediated MET activation was examined in a luciferase-based reporter assay. The growth factor HGF binds to the extracellular domain of its receptor c-Met (MET), triggering rapid homodimerization and activating several downstream signaling cascades. The anti-MET antibodies tested in this example were bivalent monospecific binders of MET, or anti-MET “bispecifics”, in which each arm of the bispecific antibody bound to a different and distinct epitope on MET. […]
(§4) Next, 2.0×10^5 HEK293/SRE-Luc cells were seeded in luciferase assay media in 96 well plates and incubated overnight at 37° C. in 5% CO2. […] Separately, the ability of the antibodies to activate c-Met in the absence of ligand was also assessed.
(§5) Luciferase activity was detected using the ONE-Glo™ Luciferase Assay System (Promega, Madison, Wis.), and emitted light was measured on a Victor or Envision luminometer (Perkin Elmer, Shelton, Conn.) and expressed as relative light units (RLUs). EC50/IC50 values were determined from a four-parameter logistic equation over a 12-point response curve using […] […]
For orientation: A reporter such as luciferase makes a cellular process visible.

Test [11] has the same test system. Kind of test: SRE-luciferase reporter bioassay, blocking of HGF-mediated MET activation. To be noted: antibodies plus HGF ligand; result in words.
Source text: as §3, §4, §5

What is called pIC50 is the IC50 on a negative log10 scale, so that one unit is a factor of ten.

pIC50: −log10 of the molar value.

Consider `CNCCC(=O)N(C)C(C)C(=O)OC1CC(=O)N(C)c2cc(cc(OC)c2Cl)CC(C)=CC=CC(OC)C2(O)CC(OC(=O)N2)C(C)C2OC12C` (centres unmarked) [M24 (Maytansinoid B released payload)], for which the pIC50 with EBC-1 cells [1], with T47D cells [2], with Hs746T cells [3] and in the test on A549 cells [4] was less than 7.00 each time. Besides, the “Max % Kill” value in the test on EBC-1 cells [1] is recorded as 32%; with T47D cells [2], 0%; in the test with Hs746T cells [3], 10%; in the test on A549 cells [4], 10%.
Turning to “HGF: hepatocyte growth factor, the MET ligand / MET-agonist [reference compound]”, the “time of peak activation of MET and ERK” value in test [5] is 2 h.
Regarding `COc1cc2cc(c1Cl)N(C)C(=O)CC(OC(=O)C(C)N(C)C(=O)CCS)C1(C)OC1C(C)C1CC(O)(NC(=O)O1)C(OC)C=CC=C(C)C2` (centres unmarked) [DM1 (free drug)], the pIC50 in the test on MDA-MB-231 cells is 8.82; in the test with J.RT3 cells, 10.15; with T47D cells [6] it was 8.88; in the test with Hs746T cells [7], 8.84; with U87MG cells, 9.21; in the test with A549 cells [8] it was 8.59. Also, in the test on HEK293 cells, the pIC50 was 9.82. Further, the “Max % Kill” value with MDA-MB-231 cells was determined as 89%; in the test on J.RT3 cells, 100%; in the test on T47D cells [6] it was 91%; with Hs746T cells [7], 81%; in the test on U87MG cells it was 89%; in the test with A549 cells [8], 97%. Also, the “Max % Kill” value in the test with HEK293 cells was 95%.
As to `COc1cc2cc(c1Cl)N(C)C(=O)CC(OC(=O)C(C)N(C)C(=O)CCSSC)C1(C)OC1C(C)C1CC(O)(NC(=O)O1)C(OC)C=CC=C(C)C2` (centres unmarked) [DM1 (MeS-DM1)], the pIC50 with EBC-1 cells [1] is 9.92; with T47D cells [2], 9.62; in the test with Hs746T cells [3], 8.86; with A549 cells [4], 9.31; with SNU-5 cells, 8.91; in the test with EBC-1 cells [9], 8.65. Besides, the negative logarithm of the IC50 (pIC50) with NCI-H1993 cells was 8.54; in the test with MKN-45 cells it was 8.56. In addition, the “Max % Kill” value came out at 62% with EBC-1 cells [1]; 96% in the test on T47D cells [2]; 88% with Hs746T cells [3]; 90% in the test on A549 cells [4]; 99% with SNU-5 cells; 90% in the test on EBC-1 cells [9]. The “Max % Kill” value with NCI-H1993 cells came out at 81%; in the test on MKN-45 cells, 85%.
Take “monovalent anti-MET antibody: monovalent MET antibody generated using the heavy and light chain variable sequences of MetMab (U.S. Pat. No. 7,892,550 B2) [reference compound]”: the “MET agonist activity in the absence of HGF ligand (SRE-luciferase, FIG. 3A, FIG. 4A)” value in test [10] is on record as “neither the monovalent nor the MET×MET bispecific antibody showed MET agonist activity”. Besides, the “blocking of HGF-dependent MET activation (SRE-luciferase, FIG. 3B, FIG. 4B)” value in [11] was “showed greater HGF blocking”.

These data come from patent US12545735B2, “Anti-met antibodies, bispecific antigen binding molecules that bind met, and methods of use thereof” (REGENERON PHARMACEUTICALS, INC., priority 2016, dated 2026).
